Patent US9655828B2, “Glucuronolactone derivatives as self-tanning substances” (Merck Patent GmbH, priority 2013, dated 2017)

Legend:
[1] = Colouring test on merino wool balls; settings: 1 mmol substance in 100 ml buffer (pH 7)/ethylene glycol 6:94, RT, 24 h, then washed and dried; compared with untreated sample
Procedure: In each case, 1 mmol of the substance to be tested are weighed out into a 100 ml conical flask with ground-glass joint:
A merino wool ball with the size of a grape and a magnetic stirrer are then added to each conical flask.
A mixture of 6% by vol. of buffer (ph7) and 94% by vol. of ethylene glycol is then prepared, 100 ml of this mixture are added to each conical flask and stirred at RT for 24 h.
After 24 h, the wool balls are washed firstly with water, then with warm washing-powder solution and again with water and dried.
This colouring result can also be applied to hair, since merino wool, like hair, is built up from proteins (keratins) and the outermost layer is in each case the cuticle.

[2] = Liquid skin model (reaction with L-lysine, L*a*b* values); settings: for L* / a* / b*: 1 mmol substance + 1 mmol L-lysine in 100 ml phosphate-buffered water (pH=7)/ethylene glycol 6:94; for L* / a* / b* / L values compared with erythrulose or glucuronolactone: after 24 hours; for hue achieved: conclusion from a values
Procedure: The mixture is subsequently made up to the mark with a mixture of 6 ml of phosphate-buffered water (pH=7) and 94 ml of ethylene glycol. The reaction is observed with vigorous stirring, and the L*a*b* values are determined after 24 hours.

[3] = system: histological explants from lower abdomen tissue; experiment: Ex-vivo study: chromametric measurement of skin explants (ITA); design: species or system human; settings: 4% substance, 30 μl applied daily for 2 h
Procedure: 24 histological explants having an average diameter of 10 mm are prepared from the lower abdomen tissue of a person. The pieces of tissue are kept in BEM medium (BIO-EC's Explants Medium) at 37° C. in a humid atmosphere comprising 5% of CO2.
The tissue is divided into 8 batches of 3 explants each: • A negative control (untreated sample, treated only with the vehicle Mygliol)→E • A positive control (4% dihydroxyacetone)→R1 • A positive control (4% erythrulose)→R2 • Glucuronolactone (4%)→P1 • Compound of the formula (Ig) (4%)→P2 • Compound of the formula (Ia) (4%)→P3
30 μl of the substance solutions are applied on 10 consecutive days using a round filter paper and left to act for 2 h. On days 1, 3 and 7, the explants are measured chromametrically.
The colour measurements are carried out using a Minolta CR-300 Chroma-meter, and the L, a and b values are read off correspondingly on the instrument.
In 1931, a test series was carried out by the CIE (Commision Internationale de L'Eclairage), where the “2-degree standard observer” was defined. A colour area is present here which is viewed at a viewing angle of 2 degrees. This viewing angle is used as standard in the chromametric measurement. • Irradiation source D65, corresponding to daylight • Region of the measurement: 3 mm • Parameters used: L*a*b*
The sample is placed on the bearing rail with the epidermis facing downwards. The irradiation is carried out from the underside through the area indicated (3 mm).
In the colorimetric determinations <<L a b>>, the L value determines the contrast of the skin. If the L value drops, the skin appears darker.
ITA is defined as arctang[(L-50)/b]. If the ITA index increases, the skin appears paler.

SMILES | coloration of wool samples [1] | L* [2] | a* [2] | b* [2] | L values compared with erythrulose or glucuronolactone ([2]; in words) | hue achieved ([2]; in words) | Day 1 (ITA value) [3] | Day 3 (ITA value) [3] | Day 7 (ITA value) [3] | colour effect compared with erythrulose or glucuronolactone ([2]; identical concentration in the test formulation, in words)
COc1ccc(/C=C/C(=O)OC2C(=O)OC3C4OC(C)(C)OC4OC23)cc1 (centres unmarked) [Compound (Ia), 2,2-Dimethyl-5-oxohexahydrofuro[2′,3′:4,5]furo[2,3-d]-1,3-dioxol-6-yl(E)-3-(4-methoxyphenyl)acrylate] | orange-yellow coloration | 66.34 | 34.88 | 105.16 | lower L values than erythrulose or glucuronolactone | shifted more towards red | −6% | −5% | −10% | –
CC1(C)OC2OC3C(OC(=O)c4ccccc4)C(=O)OC3C2O1 (centres unmarked) [Compound (Ig)] | yellow coloration | 64.09 | 36.87 | 103.8 | lower L values than erythrulose or glucuronolactone | shifted more towards red | – | – | – | –
CC(=O)OC1C(=O)OC2C3OC(C)(C)OC3OC12 (centres unmarked) [Compound (Io), 2,2-Dimethyl-5-oxohexahydrofuro[2′,3′:4,5]furo[2,3-d]-1,3-dioxol-6-yl acetate] | pale-yellow coloration | 87.51 | 2.41 | 92.10 | lower L values than erythrulose or glucuronolactone | – | – | – | – | –
O=C(CO)CO [DHA, 1,3-dihydroxyacetone] | no coloration | 34.95 | 24.91 | 57.45 | – | – | −3% | 0% | −1% | –
O=C(CO)[C@H](O)CO [Erythrulose] | – | 93.50 | −4.40 | 32.66 | – | – | 4% | −4% | 4% | –
O=C[C@H](O)[C@H]1OC(=O)[C@@H](O)[C@H]1O [Glucuronolactone] | very pale-yellow coloration | 94.30 | −6.94 | 38.68 | – | – | 10% | 4% | −2% | comparable colour effect to erythrulose
